The record followed here is patent publication US12187684B2, “Benzimidazole derivatives as modulators of retinoid-related orphan receptor gamma (RORγ) and pharmaceutical use thereof” (Jiangsu Hengrui Medicine Co., Ltd., priority 2018, dated 2025).

The target of this assay is T1, RORγ LBD-GST tagged (Homo sapiens, UniProt P51449).
T1 construct: RORγ LBD-GST tagged (Cat No. RORC-114H, Creative Biomart); purchased Creative Biomart RORC-114H
T1 sequence (P51449 269-508 limits assumed): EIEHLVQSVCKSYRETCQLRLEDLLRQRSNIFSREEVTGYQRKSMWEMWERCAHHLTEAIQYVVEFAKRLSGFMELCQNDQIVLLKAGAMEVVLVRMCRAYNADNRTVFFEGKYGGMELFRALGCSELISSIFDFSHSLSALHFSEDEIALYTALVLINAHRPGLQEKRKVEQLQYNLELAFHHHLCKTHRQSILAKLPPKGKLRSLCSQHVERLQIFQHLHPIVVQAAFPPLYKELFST
The assay is described as follows: LanthaScreen TR-FRET RORγ coactivator assay. The format is biochemical. The conditions noted are these: Fluorescein-D22 coactivator peptide, 1 hour room temperature. The source says: LanthaScreen TR-FRET Retinoid-Related Orphan Receptor Gamma (RORγ) Coactivator Assay Materials and Reagents • 1. […] Fluorescein-D22 coactivator peptide (Cat No. PV4386, Invitrogen) • 3. LanthaScreen™ Tb anti-GST antibody (Cat No. PV3550, Invitrogen) • 4. TR-FRET coregulatory buffer D (Cat No, PV4420, Invitrogen) • 5. DTT (Cat No. P2325, Fisher) • 6. […] Tecan Infinite M1000 plate reader (Tecan) Experimental Procedure Prepare Complete TR-FRET Coregulator Buffer D by adding 1 M DTT to TR-FRET Coregulator Buffer D to the final concentration of 5 mM DTT. Make compound dilution in Complete TR-FRET Coregulator Buffer D. Highest dose is 3 μM, 7-folder dilution for total 7 doses. Add 10 μL to each well of a 384-well plate. For the negative and positive controls, add 10 μL of Complete TR-FRET Coregulator Buffer D. Prepare RORγ LBD using Complete TR-FRET Coregulator Buffer D. The final concentration of RORγ LBD is 25 ng/reaction. Add 5 μL RORγ LBD to all the wells of the 384-well assay plate except negative wells which adding 5 μL Complete TR-FRET Coregulator Buffer D. Prepare a solution containing 0.6 μM Fluorescein-D22 and 8 nM Tb anti-GST antibody using Complete TR-FRET Coregulator Buffer D. Add 5 μL to all wells of the 384-well assay plate. Briefly and gently mix the 384-well plate on a plate shaker and incubate at room temperature protected from light for 1 hour. The plate may be sealed with a cover to minimize evaporation. Read the plate at wavelengths of 520 nm and 495 nm on Tecan Infinite M1000. IC50 values were calculated using GraphPad Prism by plotting the logarithm of compounds concentration versus percent inhibition.
Background: Time-resolved FRET reads energy transfer from a long-lived donor to a nearby acceptor.
In general, IC50 refers to the concentration at which inhibition is half-maximal. The low end stands for inhibition by little substance, the high end for a need for much substance. For the molecule `CCS(=O)(=O)c1ccc(C(O)c2nc3c(Cl)c(-c4ccccc4C(F)(F)F)c(Cl)cc3[nH]2)c(F)c1` (stereo not drawn) [Example 79, (4,6-dichloro-5-(2-(trifluoromethyl)phenyl)-1H-benzo[d]imidazol-2-yl)(4-(ethylsulfonyl)-2-fluorophenyl)methanol], half-maximal inhibition (IC50) was put at 0.048 µM. To `O=S(=O)(CC1CC1)c1ccc(C(O)c2nc3c(Cl)c(-c4ccccc4OC(F)(F)F)c(Cl)cc3[nH]2)c(F)c1` (stereo not drawn) [Example 82, (4-((cyclopropylmethyl)sulfonyl)-2-fluorophenyl)(4,6-dichloro-5-(2-(trifluoromethoxy)phenyl)-1H-benzo[d]imidazol-2-yl)methanol] belongs 0.046 µM; to `CCS(=O)(=O)c1ccc(Cc2nc3c(Cl)c(-c4ccccc4OC(F)F)c(Cl)cc3[nH]2)c(F)c1` [Example 83, 4,6-dichloro-5-(2-(difluoromethoxy)phenyl)-2-(4-(ethylsulfonyl)-2-fluorobenzyl)-1H-benzo[d]imidazole], 0.065 µM. With `CCS(=O)(=O)c1ccc(C(O)c2nc3c(Cl)c(-c4ccccc4OC(F)F)c(Cl)cc3[nH]2)c(F)c1` (stereo not drawn) [Example 85, (4,6-dichloro-5-(2-(difluoromethoxy)phenyl)-1H-benzo[d]imidazol-2-yl)(4-(ethylsulfonyl)-2-fluorophenyl)methanol] the figure was 0.188 µM; with `CCS(=O)(=O)c1ccc(C(CO)c2nc3c(Cl)c(-c4ccccc4OC(F)(F)F)c(Cl)cc3[nH]2)c(Cl)c1` (stereo not drawn) [Example 87, 2-(2-chloro-4-(ethylsulfonyl)phenyl)-2-(4,6-dichloro-5-(2-(trifluoromethoxy)phenyl)-1H-benzo[d]imidazol-2-yl)ethanol], 0.024 µM; with `CCS(=O)(=O)c1ccc(C(O)c2nc3c(Cl)c(-c4ccccc4OC(F)(F)F)c(Cl)cc3[nH]2)c(Cl)c1` (stereo not drawn) [Example 88, (2-chloro-4-(ethylsulfonyl)phenyl)(4,6-dichloro-5-(2-(trifluoromethoxy)phenyl)-1H-benzo[d]imidazol-2-yl)methanol], 0.162 µM. In turn, `CCS(=O)(=O)c1ccc(Cc2nc3c(Cl)c(-c4ccccc4OC(F)F)c(Cl)cc3[nH]2)c(Cl)c1` [Example 89, 4,6-dichloro-2-(2-chloro-4-(ethylsulfonyl)benzyl)-5-(2-(difluoromethoxy)phenyl)-1H-benzo[d]imidazole] displayed an IC50 of 0.004 µM.

Consider `O=S(=O)(CC1CC1)c1ccc(Cc2nc3c(Cl)c(-c4ccccc4OC(F)(F)F)c(Cl)cc3[nH]2)c(Cl)c1` [Example 90, 4,6-dichloro-2-(2-chloro-4-((cyclopropylmethyl)sulfonyl)benzyl)-5-(2-(trifluoromethoxy)phenyl)-1H-benzo[d]imidazole], for which it took 0.004 µM to reach half-maximal inhibition (IC50). The molecule `O=S(=O)(CC1CC1)c1ccc(C(CO)c2nc3c(Cl)c(-c4ccccc4OC(F)(F)F)c(Cl)cc3[nH]2)c(Cl)c1` (stereo not drawn) [Example 91, 2-(2-chloro-4-((cyclopropylmethyl)sulfonyl)phenyl)-2-(4,6-dichloro-5-(2-(trifluoromethoxy)phenyl)-1H-benzo[d]imidazol-2-yl)ethanol] showed an IC50 of 0.14 µM. With `O=S(=O)(CC1CC1)c1ccc(C(O)c2nc3c(Cl)c(-c4ccccc4OC(F)(F)F)c(Cl)cc3[nH]2)c(Cl)c1` (stereo not drawn) [Example 92, (2-chloro-4-((cyclopropylmethyl)sulfonyl)phenyl)(4,6-dichloro-5-(2-(trifluoromethoxy)phenyl)-1H-benzo[d]imidazol-2-yl)methanol] the figure was 0.067 µM; with `O=S(=O)(CC1CC1)c1ccc(Cc2nc3c(Cl)c(-c4ccccc4Cl)c(Cl)cc3[nH]2)cc1` [Example 93, 4,6-dichloro-5-(2-chlorophenyl)-2-(4-((cyclopropylmethyl)sulfonyl)benzyl)-1H-benzo[d]imidazole], 0.075 µM; with `O=S(=O)(CC1CC1)c1ccc(C(O)c2nc3c(Cl)c(-c4ccccc4Cl)c(Cl)cc3[nH]2)cc1` (stereo not drawn) [Example 94, (4-((cyclopropylmethyl)sulfonyl)phenyl)(4,6-dichloro-5-(2-chlorophenyl)-1H-benzo[d]imidazol-2-yl)methanol], 0.023 µM. With `N#Cc1ccccc1-c1c(Cl)cc2[nH]c(Cc3ccc(S(=O)(=O)CC4CC4)cc3)nc2c1Cl` [Example 95, 2-(4,6-dichloro-2-(4-((cyclopropylmethyl)sulfonyl)benzyl)-1H-benzo[d]imidazol-5-yl)benzonitrile] the figure was 0.065 µM; with `N#Cc1ccccc1-c1c(Cl)cc2[nH]c(C(CO)c3ccc(S(=O)(=O)CC4CC4)cc3)nc2c1Cl` (stereo not drawn) [Example 96, 2-(4,6-dichloro-2-(1-(4-((cyclopropylmethyl)sulfonyl)phenyl)-2-hydroxyethyl)-1H-benzo[d]imidazol-5-yl)benzonitrile], 0.123 µM. As for `N#Cc1ccccc1-c1c(Cl)cc2[nH]c(C(O)c3ccc(S(=O)(=O)CC4CC4)cc3)nc2c1Cl` (stereo not drawn) [Example 97, 2-(4,6-dichloro-2-((4-((cyclopropylmethyl)sulfonyl)phenyl)(hydroxy)methyl)-1H-benzo[d]imidazol-5-yl)benzonitrile], the IC50 was found to be 0.001 µM.

For the molecule `O=S(=O)(CC1CC1)c1ccc(Cc2nc3c(Cl)c(-c4ccccc4OC(F)F)c(Cl)cc3[nH]2)c(F)c1` [Example 98, 4,6-dichloro-2-(4-((cyclopropylmethyl)sulfonyl)-2-fluorobenzyl)-5-(2-(difluoromethoxy)phenyl)-1H-benzo[d]imidazole], the 50% inhibitory concentration (IC50) turned out to be 0.007 µM. Turning to `CS(=O)(=O)c1ccc(Cc2nc3c(Cl)c(-c4ccccc4OC(F)(F)F)c(Cl)cc3[nH]2)c(Cl)c1` [Example 101, 4,6-dichloro-2-(2-chloro-4-(methylsulfonyl)benzyl)-5-(2-(trifluoromethoxy)phenyl)-1H-benzo[d]imidazole], the IC50 is 0.082 µM. Molecule `CS(=O)(=O)c1ccc(C(CO)c2nc3c(Cl)c(-c4ccccc4OC(F)(F)F)c(Cl)cc3[nH]2)c(Cl)c1` (stereo not drawn) [Example 102, 2-(2-chloro-4-(methylsulfonyl)phenyl)-2-(4,6-dichloro-5-(2-(trifluoromethoxy)phenyl)-1H-benzo[d]imidazol-2-yl)ethanol] registered an IC50 of 0.062 µM. To `CS(=O)(=O)c1ccc(C(O)c2nc3c(Cl)c(-c4ccccc4OC(F)(F)F)c(Cl)cc3[nH]2)c(Cl)c1` (stereo not drawn) [Example 103, (2-chloro-4-(methylsulfonyl)phenyl)(4,6-dichloro-5-(2-(trifluoromethoxy)phenyl)-1H-benzo[d]imidazol-2-yl)methanol] belongs 0.158 µM. To `CC(C)S(=O)(=O)c1ccc(Cc2nc3c(Cl)c(-c4ccccc4OC(F)(F)F)c(Cl)cc3[nH]2)cc1` [Example 104] belongs 0.337 µM; to `CC(C)S(=O)(=O)c1ccc(C(O)c2nc3c(Cl)c(-c4ccccc4OC(F)(F)F)c(Cl)cc3[nH]2)cc1` (stereo not drawn) [Example 106, (4-((iso-propyl)sulfonyl)phenyl)(4,6-dichloro-5-(2-(trifluoromethoxy)phenyl)-1H-benzo[d]imidazol-2-yl)methanol], 0.003 µM; to `CC(C)S(=O)(=O)c1ccc(C(CO)c2nc3c(Cl)c(-c4ccccc4C(F)(F)F)c(Cl)cc3[nH]2)cc1` (stereo not drawn) [Example 107], 0.055 µM. Turning to `CCS(=O)(=O)c1ccc(Cc2nc3c(F)c(-c4ccccc4OC(F)(F)F)c(F)cc3[nH]2)cc1` [Example 108, 2-(4-(ethylsulfonyl)benzyl)-4,6-difluoro-5-(2-(trifluoromethoxy)phenyl)-1H-benzo[d]imidazole], half-maximal inhibition (IC50) required 0.032 µM. `CCS(=O)(=O)c1ccc(C(CO)c2nc3c(F)c(-c4ccccc4OC(F)(F)F)c(F)cc3[nH]2)cc1` (stereo not drawn) [Example 109, 2-(4,6-difluoro-5-(2-(trifluoromethoxy)phenyl)-1H-benzo[d]imidazol-2-yl)-2-(4-(ethylsulfonyl)phenyl)ethanol] displayed an IC50 of 1.04 µM. To `CCS(=O)(=O)c1ccc(C(O)c2nc3c(F)c(-c4ccccc4OC(F)(F)F)c(F)cc3[nH]2)cc1` (stereo not drawn) [Example 110, (4,6-difluoro-5-(2-(trifluoromethoxy)phenyl)-1H-benzo[d]imidazol-2-yl)(4-(ethylsulfonyl)phenyl)methanol] belongs 0.698 µM; to `CCS(=O)(=O)c1ccc(Cc2nc3c(F)c(-c4ccccc4C(F)(F)F)c(F)cc3[nH]2)cc1` [Example 111, 2-(4-(ethylsulfonyl)benzyl)-4,6-difluoro-5-(2-(trifluoromethyl)phenyl)-1H-benzo[d]imidazole], 0.06 µM; to `CCS(=O)(=O)c1ccc(C(CO)c2nc3c(F)c(-c4ccccc4F)c(F)cc3[nH]2)cc1` (stereo not drawn) [Example 112, 2-(4,6-difluoro-5-(2-fluorophenyl)-1H-benzo[d]imidazol-2-yl)-2-(4-(ethylsulfonyl)phenyl)ethanol], 0.076 µM.
